Reference: patent US20220195059A1, “Rank Pathway Inhibitors in Combination with CDK Inhibitors” (INSTITUTO DE MEDICINA MOLECULAR JOÃO LOBO ANTUNES, priority 2019, published 2022)

Tests used:
Type in all cases: cell-based, human
[1] = test system: RANK OE cells (MCF-7^OE, T47D^OE) and parental MCF-7, T47D cells; test: Alamar blue viability assay, RANK OE luminal breast cancer cells vs parental counterparts; settings: for sensitivity of RANK OE cells to the drug (cell viability): RANK OE cells vs parental counterparts, drug alone
Procedure: (§1) Cells were seeded in 96 well-plates (2-5×10^4 cells/mL), with or without paclitaxel (Y0000698, Sigma), doxorubicin hydrochloride (D2975000, Sigma), palbociclib (PD 0332991 isethionate, PZ0199, Sigma), ribociclib (LEE011 succinate, SC-488174, Santa Cruz), abemaciclib mesylate (LY2835219, S7158, Selleckchem), fulvestrant (S1191, Selleckchem), everolimus (#73122, StemCell Technologies), full length human OPG (SRP3132, Sigma), and OPG-Fc (Amgen). Medium was replaced every 2 days. After 7 days, 1:10 Alamar blue (Invitrogen) was added to each well and fluorescence was measured 2 hours after incubation (excitation 560 nm; emission 590 nm) in an Infinite M200 microplate reader (Tecan).
In particular, RANK OE cells were tested for responsiveness to hormone therapy. Briefly, RANK OE cells were seeded in multi-well plates and exposed to fulvestrant for 7 days.
In this assay, however, RANK OE cells were exposed to a CDK 4/6 inhibitor alone or in combination with an inhibitor of the RANK pathway, in order to test the effect of blocking the RANK pathway in this context. Briefly, RANK OE cells were seeded in multi-well plates and exposed to palbociclib, ribociclib or abemaciclib alone or in combination with OPG-Fc for 7 days. Osteoprotegrin (OPG) is the physiologic soluble decoy receptor for RANK ligand (RANKL), and OPG-Fc is a fusion protein comprising only the four cysteine-rich domains of OPG (D1 to D4) fused with the Fc domain of an IgG1 antibody.
In this study, the CDK4/6 inhibitors palbociclib and ribociclib were exposed to RANK OE cells in combination with fulvestrant or everolimus. This combination therapy was then tested alone or in combination with OPG, an inhibitor of the RANK pathway. In this assay, the full-length OPG protein was used, in contrast to the previous example utilizing OPG-Fc.
To address this question, cell growth in the presence or absence of a CDK4 inhibitor was quantified. Briefly, cells were seeded in 96-well plates and exposed to two different drugs, CDK4 inhibitors, 3-ATA (FIG. 20A) or Cdk4 inhibitor Ill (FIG. 20B) for seven days. Medium was replaced every two days, and viability was assessed by Alamar blue assay. FIG. 20A provides the cell growth quantification in the presence of the CDK4 inhibitor 3-ATA and FIG. 20B provides the cell growth quantification in the presence of another CDK4 inhibitor, Cdk4 Inhibitor Ill. The results are the mean of at least three independent assays, with 4 replicates per assay, and presented as the mean±SEM. p-value was calculated using 2-way ANOVA, *p<0.05, **p<0.01, ***p<0.001.
To answer this question, cell growth in the presence of the pan-CDK inhibitor seliciclib (also known as roscovitine or CYC202) was analyzed. Briefly, cells were seeded in 96-well plates and exposed to different drugs for seven days. Medium was replaced every two days, and viability was assessed by Alamar blue assay.
(§2) Cells were seeded in 96 well-plates (2-5×10^4 cells/mL), with or without palbociclib (PD 0332991 isethionate, PZ0199, Sigma), ribociclib (LEE011 succinate, SC-488174, Santa Cruz), abemaciclib mesylate (LY2835219, S7158, Selleckchem), 3-ATA (sc-202414, Santa Cruz), Cdk4 inhibitor Ill (sc-202988, Santa Cruz), seliciclib (S1153, Selleckchem), and OPG-Fc (PL-33324, Amgen). Medium was replaced every 2 days. After 7 days, 1:10 Alamar blue (Invitrogen) was added to each well and fluorescence was measured 2 hours after incubation (excitation 560 nm; emission 590 nm) in an Infinite M200 microplate reader (Tecan).

[2] = test system: TNBC cells (MDA-MB-231, MDA-MB-436, MDA-MB-468, MDA-MB-157, HCC1937, BT-20); test: Alamar blue viability assay, TNBC cell lines with or without OPG-Fc; settings: 7 days
Procedure: as §1
Medium was replaced every two days, and viability was assessed by Alamar blue assay.
as §2

MDA-MB-231 TNBC cells = test: Alamar blue viability assay, MDA-MB-231 TNBC cells with or without RANK knockdown; settings: 7 days
Procedure: For lentiviral transduction, MDA-MB-231GFP+Luc+ cells were seeded in 24-well plates, at a density of 4×10^4 cells/well. 24 hours after seeding, medium was replaced by fresh medium containing 8 μg/ml Polybrene (Sigma) and RANK shRNA (h) lentiviral particles (15-20 μl/well; sc-42960-V, Santa Cruz) or control shRNA lentiviral particles (15-20 μl/well; sc-108080, Santa Cruz). Cells were selected with 0.5 μg/mL Puromycin dihydrochloride (Sigma) starting three days after transduction.
as §1
RANK KD clones were first generated for use in sensitivity assays. Briefly, MCF-7GFP+Luc+ cells were seeded in multi-well plates and then exposed to fresh medium comprising RANK shRNA (h) lentiviral particles or control shRNA lentiviral particles. The transduced cells were selected using Puromycin dihydrochloride starting three days post-transduction.

For `Nc1ccc2c(=S)c3ccccc3[nH]c2c1` [3-ATA, 3-Amino-9-thio(10H)-acridone], the “sensitivity of RANK OE cells to the drug (cell viability)” value ([1]; 7 days) was “resistant” and the “resistance of RANK OE cells to doses above 2.5 μM” value ([1]; RANK OE cells, 7 days) was “resistant to even higher doses”.

For `Cc1ccc(NC2=CC(=O)c3sc(C)nc3C2=O)cc1` [Cdk4 inhibitor Ill, 5-(N-(4-Methylphenyl)amino)-2-methyl-4,7-dioxobenzothiazole], the “sensitivity of RANK OE cells to the drug (cell viability)” value ([1]; 7 days) was “resistant”.

For `CCN1CCN(Cc2ccc(Nc3ncc(F)c(-c4cc(F)c5nc(C)n(C(C)C)c5c4)n3)nc2)CC1` [abemaciclib], the “sensitivity of RANK OE cells to the drug (cell viability)” value ([1]; 7 days) was “decreased sensitivity” and the “sensitivity of TNBC cells to CDK4/6 inhibitor (cell viability)” value [2] was “resistance”.

`C[C@]12CC[C@@H]3c4ccc(O)cc4C[C@@H](CCCCCCCCC[S+]([O-])CCCC(F)(F)C(F)(F)F)[C@H]3[C@@H]1CC[C@@H]2O` (stereo partly shown) [fulvestrant] was tested, and the “sensitivity of RANK OE cells to the drug (cell viability)” value ([1]; 7 days) was “decreased sensitivity”.

For `CN(C)C(=O)c1cc2cnc(Nc3ccc(N4CCNCC4)cn3)nc2n1C1CCCC1` [ribociclib], the “sensitivity of RANK OE cells to the drug (cell viability)” value ([1]; 7 days) was “decreased sensitivity”, the “sensitivity to CDK4/6 inhibitor (cell viability)” value (MDA-MB-231 TNBC cells; MDA-231 cells and MDA-231 shControl cells) was “resistance” and the “sensitivity to CDK4/6 inhibitor (cell viability)” value (MDA-MB-231 TNBC cells; TNBC RANK KD cells (MDA-231 shRANK) vs RANK expressing cells) was “restored sensitivity”. For the same molecule, the “sensitivity of TNBC cells to CDK4/6 inhibitor (cell viability)” value [2] was “resistance”.

`CC[C@H](CO)Nc1nc(NCc2ccccc2)c2ncn(C(C)C)c2n1` [seliciclib] was tested, and the “sensitivity of RANK OE cells to pan-CDK inhibitor” value ([1]; RANK OE cells vs parental (RANK low) cells, 7 days) was “less sensitive” and the “enhancement of the effect of palbociclib, or palbociclib plus OPG-Fc” value ([1]; RANK OE cells, 7 days) was “did not enhance”.

B1: OPG: full-length OPG protein, soluble decoy receptor for RANK ligand (protein, UniProt O00300 1-401, looked up)
chain: MNNLLCCALVFLDISIKWTTQETFPPKYLHYDEETSHQLLCDKCPPGTYLKQHCTAKWKTVCAPCPDHYYTDSWHTSDECLYCSPVCKELQYVKQECNRTHNRVCECKEGRYLEIEFCLKHRSCPPGFGVVQAGTPERNTVCKRCPDGFFSNETSSKAPCRKHTNCSVFGLLLTQKGNATHDNICSGNSESTQKCGIDVTLCEEAFFRFAVPTKFTPNWLSVLVDNLPGTKVNAESVERIKRQHSSQEQTFQLLKLWKHQNKDQDIVKKIIQDIDLCENSVQRHIGHANLTFEQLRSLMESLPGKKVGAEDIEKTIKACKPSDQILKLLSLWRIKNGDQDTLKGLMHALKHSKTYHFPKTVTQSLKKTIRFLHSFTMYKLYQKLFLEMIGNQVQSVKISCL
modifications: full-length
notes: full-length OPG protein, soluble decoy receptor for RANK ligand
In the case of B1, the “sensitivity of RANK OE cells to CDK4/6 inhibitor combination therapy when further combined with OPG” value ([1]; full-length OPG added to palbociclib or ribociclib plus fulvestrant or everolimus) is reported as “restored”.
